Assay results reported in US10245255B2, “Compositions and methods for the treatment of obesity and related disorders” (THE REGENTS OF THE UNIVERSITY OF MICHIGAN, priority 2011, dated 2019).
Entries after “also recorded” stand apart in the source; their conditions may differ.

Key:
3T3-L1 adipocytes = assay: 3T3-L1 adipocytes: phosphorylation (immunoblot) and lipolysis; type: cell-based
Procedure: 3T3-L1 fibroblasts (American Type Culture Collection, Manassas, Va.) were cultured and differentiated using standard methods known in the art. […] 3T3-L1 adipocytes were serum starved with 0.5% fetal bovine serum (FBS) in Dulbecco's modified eagle medium (DMEM) prior to treatment. TNFα treatments (50 ng/mL unless otherwise noted) were performed during the 24 hour prior to harvest, after pretreatment with IKKβ inhibitor compound VIII (EMD Biosciences, Philadelphia, Pa.) for 1 hour where indicated. […] Cells were treated with or without 10 nM of insulin for 15 minutes. RAW264.7 cells were serum starved with 0.5% FBS DMEM media and pre-treated with or without Cay-10576 (Cayman Chemical, Ann Arbor, Mich.). The cells were then treated with LPS (0.5 μg/ml) or poly I:C (50 μg/ml) for 1 hour. Cells were harvested for total RNA and analyzed by real-time PCR Cell lysates were resolved on SDS-PAGE and analyzed by immunoblot using the indicated antibodies.

[1] = Ob/ob mice: adipose tissue histology and mRNA levels; type: in vivo
Procedure: (§1) Tissues were fixed in formalin for 3 days. Histology was performed by the University of Michigan Cancer Center Research Histology Laboratory.
(§2) Mouse tissues were isolated, rinsed in Phosphate Buffered Saline (PBS), frozen in liquid nitrogen and stored at −80° C. until extraction. Total RNA was extracted from Liver, WAT and BAT tissues as well as differentiated 3T3-L1 cells using the RNeasy Lipid Tissue Kit (Qiagen, Valencia, Calif.) according to the manufacturer's instructions with the inclusion of a DNase digestion step. Total RNA was extracted from BMDM and SVF cells using the RNeasy Kit (Qiagen, Valencia, Calif.) with a DNase step. The Superscript First-Strand Synthesis System for RTPCR (Invitrogen, Grand Island, N.Y.) was used with random primers for reverse transcription. Realtime PCR amplification of the cDNA was performed on samples in triplicate with Power SYBR Green PCR Master Mix (Applied Biosystems, Carlsbad, Calif.) using the Applied Biosystems 7900HT Fast Realtime PCR System. […] Data was analyzed using the 2-ΔΔCT method, and statistical significance was determined using the unpaired heterocedastic Student's t-test with one averaged sample value per mouse.

[2] = Diet-induced obese mice: liver weight, triglyceride, glycogen, histology; type: in vivo, C57BL/6 mice
Procedure: (§3) Wild type male C57BL/6 mice were fed a high fat diet consisting of 45% of calories from fat (D12451 Research Diets Inc., New Brunswick, N.J.) starting at 8 weeks of age for 12-24 weeks, while normal diet C57BL/6 controls were maintained on normal chow diet consisting of 4.5% fat (5002 Lab Diet, Philadelphia, Pa.). Diets containing ω-3 fatty acids were fed as previously described 24. Rosiglitazone treatment was administered for three weeks by addition of the compound to the diet in mice that had been on HFD for 16 weeks. Each mouse consumed on average 3.5 mg/kg rosiglitazone per day. Amlexanox was administered by daily oral gavage. […] Animals were housed in a specific pathogen-free facility with a 12-hour light/12-hour dark cycle and given free access to food and water. All animal use was in compliance with the Institute of Laboratory Animal Research Guide for the Care and Use of Laboratory Animals and approved by the University Committee on Use and Care of Animals at the University of Michigan and UCSD.
Liver lipids were isolated as previously described (Norris et. Al. 2003) and the triglyceride levels were measured by Triglyceride Reagent kit.
Determination of glycogen in liver was performed as follows. Briefly, liver tissue was digested in a 30% potassium hydroxide solution, and then glycogen was precipitated using ethanol. After three washes to remove any traces of glucose, glycogen was digested by addition of amyloglucosidase. Released glucose was quantified using a colorimetric kit (Wako, Richmond, Va.).
as §1

[3] = Ob/ob mice: liver mRNA levels; type: in vivo; details: 100 mg/kg for 14 weeks, vs vehicle
Procedure: Particular physiological tests were used during the development of the technology provided herein. For example, in some of the experiments described below, subjects were tested for tolerance of injected glucose and insulin according to the methods described in Chiang et al. (“The protein kinase IKKepsilon regulates energy balance in obese mice”, Cell (2009) 138: 961-975, incorporated herein by reference in its entirety for all purposes). In some of the experiments described below, subjects were tested for tolerance of oral glucose. In particular, mice were fasted for 6 hours before the studies. For ob/ob mice, 1.0-1.5 mg/g of glucose was gavaged into mice, and blood glucose was measured with a glucometer (e.g., OneTouch Ultra glucometer). Measurement of triglycerides, mRNA, and cytokines were performed according to the methods described in Chiang et al. (The protein kinase IKKepsilon regulates energy balance in obese mice. Cell (2009) 138: 961-975).
as §2

[4] = Diet-induced obese mice: tissue protein, phosphorylation and gene expression (liver, WAT, BAT); type: in vivo, C57BL/6 mice
Procedure: as §3
Tissues were homogenized in lysis buffer (50 mM Tris, pH 7.5, 5 mM EDTA, 250 mM sucrose, 1% NP40, 2 mM DTT, 1 mM sodium vanadate, 100 mM NaF, 10 mM Na4P2O7, and freshly added protease inhibitor tablet), then incubated for one hour at 4° C. Crude lysates were then centrifuged at 14,000×g for 15 minutes twice and the protein concentration was determined using BioRad Protein Assay Reagent. Samples were diluted in sodium dodecyl sulfate (SDS) sample buffer. Bound proteins were resolved by SDS-polyacrylamide gel electrophoresis and transferred to nitrocellulose membranes (Bio-Rad, Hercules, Calif.). Individual proteins were detected with the specific antibodies and visualised on film using horseradish peroxidase-conjugated secondary antibodies (Bio-Rad, Hercules, Calif.) and Western Lightning Enhanced Chemiluminescence (Perkin Elmer Life Sciences, Waltham, Mass.).
as §1, §2

[5] = cells chronically treated with TNFα
[6] = diet induced obese mice, 25 mg/kg for 8 weeks

## CC(C)c1ccc2oc3nc(N)c(C(=O)O)cc3c(=O)c2c1 [amlexanox, 2-amino-7-isopropyl-5-oxo-5H-chromeno[2,3-b]pyridine-3-carboxylic acid]
3T3-L1 adipocytes
  basal lipolytic rate (glycerol release): increased
3T3-L1 adipocytes; 1 hour pre-treatment, 20 μg/ml poly I:C
  poly I:C-stimulated phosphorylation of IRF3 (serine 396): blocked; also recorded: inhibition
3T3-L1 adipocytes; [5]
  down regulation of PPARγ produced by TNFα: did not affect
  forskolin stimulated hormone sensitive lipase phosphorylation (serine 660): restored; also recorded: partially restores
  phosphorylation of TBK1 at serine 172 in TNFα-treated cells: restored
3T3-L1 adipocytes; two-fold serial dilution, highest concentration 50 μM, with and without poly I:C
  phosphorylation of TBK1 on serine 172: increased phosphorylation; also recorded: induction
[1]; 100 mg/kg
  expression of Glut4 in WAT: Increased expression
  expression of PPARγ in WAT: Increased expression
[1]; 100 mg/kg for 12 weeks
  adipose tissue mRNA level, CD11c: marked reduction
  adipose tissue mRNA level, F4/80: marked reduction
  adipose tissue mRNA level, IL-10: marked reduction
  adipose tissue mRNA level, MCP-1: marked reduction
  adipose tissue mRNA level, MIP1α: marked reduction
  adipose tissue mRNA level, Rantes: marked reduction
  adipose tissue mRNA level, TNFα: marked reduction
[1]; 100 mg/kg for 12 weeks, epididymal fat
  infiltration of inflammatory macrophages in adipose tissue (H & E): markedly reduced
[2]; continued on high fat diet, stained tissue sections
  reductions in hepatic lipids after mice were taken off drug: reversed
[2]; [6]
  large lipid droplets in liver (H & E staining): largely disseminated
  reduction in liver weight: greater than 20%
[2]; diet induced obese mice, 25 mg/kg for 8 weeks, vs control HFD mice
  hepatic glycogen levels: lower
[2]; diet induced obese mice, 25 mg/kg for 8 weeks, vs vehicle
  reduction of triglyceride content in liver: more than 50%
[3]
  liver mRNA level, Cd11c: reduced
  liver mRNA level, F4/80: reduced
  liver mRNA level, IL-10: reduced
  liver mRNA level, MIP1α: reduced
  liver mRNA level, Rantes: reduced
  liver mRNA level, TNFα: reduced
  liver mRNA level, acetyl CoA carboxylase (ACC): reduced
  liver mRNA level, fatty acid synthase (FAS): reduced
  liver mRNA level, stearyl CoA desaturase (SCD1): reduced
[4]; HFD, 25 mg/kg daily
  expression of brown fat-specific marker Cidea in BAT: increased
[4]; HFD, treatment group
  UCP1 protein levels in brown fat: increased
[4]; compared to control
  mitochondrial genes in brown fat: no increases
[4]; compared to controls
  signaling through the mTORC1 pathway in BAT: Reduced signaling
[4]; diet induced obese mice
  TBK1 phosphorylation in adipose tissue: prevented
  high fat diet induction of IKKε protein in adipose tissue: blocked
  high fat diet-induced increase of S6K phosphorylation in adipose tissue: largely attenuated
[4]; diet induced obese mice vs HFD vehicle
  UCP-1 protein levels in adipose tissue: increased
[4]; high fat diet
  brown fat appearance: reverted to its normal appearance
  hormone sensitive lipase phosphorylation in adipose tissue: prevented the reduction
[4]; high fat diet, withdrawal
  BAT lipids when amlexanox treatment was stopped: lipids again accumulated
[4]; mice with diet induced obesity
  genetic measures of hepatosteatosis: similarly reduced
[4]; mouse, in vivo
  IKKε protein levels in BAT: reduced
  TBK1 protein levels in BAT: reduced
